Results as given in patent publication US11419335B2, “N-arylated analogues and uses thereof” (University of Florida Research Foundation, Incorporated, priority 2016, dated 2022).
Like-named read-outs stand apart in the source and are kept apart here. Marks after values point to notes of the source that are not given here.

What was measured:
[1] = test system: methicillin-resistant Staphylococcus aureus MRSA-2 (clinical isolate); assay: MIC broth microdilution, MRSA-2; assay type: cell-based; conditions: for MIC: read-out: MIC MRSA-2; for MRSA-2 MIC: Table 2A
Protocol: (§1) The minimum inhibitory concentration (MIC) for each tested compound was determined by the broth microdilution method as recommended by the Clinical and Laboratory Standards Institute (CLSI). In a 96-well plate, eleven two-fold serial dilutions of each compound were made in a final volume of 100 μL Luria Broth. Each well was inoculated with ˜10^5 bacterial cells at the initial time of incubation, prepared from a fresh log phase culture (OD600 of 0.5 to 1.0 depending on bacterial strain). The MIC was defined as the lowest concentration of compound that prevented bacterial growth after incubating 16 to 18 hours at 37° C. (MIC values were supported by spectrophotometric readings at OD600). DMSO served as our vehicle and negative control in each microdilution MIC assay. DMSO was serially diluted with a top concentration of 1% v/v.
as §1, with “for each compound was” for “for each tested compound was”, “Standards Institute (CLSI).^6 In a” for “Standards Institute (CLSI). In a”, “concentration of test compound that” for “concentration of compound that”, “37° C. The concentration range tested for each compound during this study was 0.10 to 100 μM. DMSO served” for “37° C. (MIC values were supported by spectrophotometric readings at OD600). DMSO served”, “1% v/v. All MIC values were obtained from a minimum of three independent experiments.” for “1% v/v.”

[2] = test system: MRSA BAA-1707; assay: MIC broth microdilution, MRSA BAA-1707; assay type: cell-based, Staphylococcus aureus; conditions: for MIC: read-out: MIC MRSA BAA-1707
Protocol: as §1, with “The MIC was defined as the lowest concentration of compound that prevented bacterial growth after incubating 16 to 18 hours at 37° C.” left out
(§2) Each well was inoculated with ˜10^5 bacterial cells at the initial time of incubation, prepared from a fresh log phase culture (OD600 of 0.5 to 1.0 depending on bacterial strain). […] The concentration range tested for each compound during this study was 0.10 to 100 μM. DMSO served as our vehicle and negative control in each microdilution MIC assay. DMSO was serially diluted with a top concentration of 1% v/v. All MIC values were obtained from a minimum of three independent experiments.

[3] = test system: methicillin-resistant Staphylococcus epidermidis (MRSE strain ATCC 35984); assay: MIC broth microdilution, MRSE 35984; assay type: cell-based; conditions: for MIC S. epidermidis MRSE 35984: Table 1A; for MIC: Table 2A, read-out: MRSE 35984 MIC; for MIC MRSE 35984: Table 4
Protocol: as §1
as §1, with “for each compound was” for “for each tested compound was”, “Standards Institute (CLSI).^6 In a” for “Standards Institute (CLSI). In a”, “concentration of test compound that” for “concentration of compound that”, “37° C. The concentration range tested for each compound during this study was 0.10 to 100 μM. DMSO served” for “37° C. (MIC values were supported by spectrophotometric readings at OD600). DMSO served”, “1% v/v. All MIC values were obtained from a minimum of three independent experiments.” for “1% v/v.”

[4] = test system: vancomycin-resistant Enterococcus faecium (VRE strain ATCC 700221); assay: MIC broth microdilution, VRE 700221; assay type: cell-based; conditions: for MIC E. faecium VRE 700221: Table 1A; for VRE MIC: Table 2A; for MIC VRE 700221: Table 4
Protocol: as §1
as §1, with “for each compound was” for “for each tested compound was”, “Standards Institute (CLSI).^6 In a” for “Standards Institute (CLSI). In a”, “concentration of test compound that” for “concentration of compound that”, “37° C. The concentration range tested for each compound during this study was 0.10 to 100 μM. DMSO served” for “37° C. (MIC values were supported by spectrophotometric readings at OD600). DMSO served”, “1% v/v. All MIC values were obtained from a minimum of three independent experiments.” for “1% v/v.”

[5] = test system: Acinetobacter baumannii (ATCC 1794); assay: MIC broth microdilution, A. baumannii 1794; assay type: cell-based; conditions: for MIC A. baumannii 1794: Table 1A, in µM; for MIC A. bau. 1794: Table 4
Protocol: as §1
as §1, with “for each compound was” for “for each tested compound was”, “Standards Institute (CLSI).^6 In a” for “Standards Institute (CLSI). In a”, “concentration of test compound that” for “concentration of compound that”, “37° C. The concentration range tested for each compound during this study was 0.10 to 100 μM. DMSO served” for “37° C. (MIC values were supported by spectrophotometric readings at OD600). DMSO served”, “1% v/v. All MIC values were obtained from a minimum of three independent experiments.” for “1% v/v.”

[6] = test system: Pseudomonas aeruginosa (PAO1); assay: MIC broth microdilution, PAO1; assay type: cell-based
Protocol: as §1
as §1, with “for each compound was” for “for each tested compound was”, “Standards Institute (CLSI).^6 In a” for “Standards Institute (CLSI). In a”, “concentration of test compound that” for “concentration of compound that”, “37° C. The concentration range tested for each compound during this study was 0.10 to 100 μM. DMSO served” for “37° C. (MIC values were supported by spectrophotometric readings at OD600). DMSO served”, “1% v/v. All MIC values were obtained from a minimum of three independent experiments.” for “1% v/v.”

[7] = test system: methicillin-sensitive Staphylococcus aureus ATCC 29213; assay: MIC broth microdilution, S. aureus 29213; assay type: cell-based
Protocol: as §1, with “The MIC was defined as the lowest concentration of compound that prevented bacterial growth after incubating 16 to 18 hours at 37° C.” left out
as §2

[8] = test system: MRSA-1 (clinical isolate); assay: MIC broth microdilution, MRSA-1; assay type: cell-based, Staphylococcus aureus
Protocol: as §1, with “The MIC was defined as the lowest concentration of compound that prevented bacterial growth after incubating 16 to 18 hours at 37° C.” left out
as §2

[9] = test system: SA-129 (clinical isolate); assay: MIC broth microdilution, SA-129; assay type: cell-based, Staphylococcus aureus
Protocol: as §1, with “The MIC was defined as the lowest concentration of compound that prevented bacterial growth after incubating 16 to 18 hours at 37° C.” left out
as §2

[10] = test system: SA-147 (clinical isolate); assay: MIC broth microdilution, SA-147; assay type: cell-based, Staphylococcus aureus
Protocol: as §1, with “The MIC was defined as the lowest concentration of compound that prevented bacterial growth after incubating 16 to 18 hours at 37° C.” left out
as §2

[11] = test system: SA-138 (clinical isolate); assay: MIC broth microdilution, SA-138; assay type: cell-based, Staphylococcus aureus
Protocol: as §1, with “The MIC was defined as the lowest concentration of compound that prevented bacterial growth after incubating 16 to 18 hours at 37° C.” left out
as §2

[12] = test system: SA-156 (clinical isolate); assay: MIC broth microdilution, SA-156; assay type: cell-based, Staphylococcus aureus
Protocol: as §1, with “The MIC was defined as the lowest concentration of compound that prevented bacterial growth after incubating 16 to 18 hours at 37° C.” left out
as §2

[13] = test system: MRSA BAA-44; assay: MIC broth microdilution, MRSA BAA-44; assay type: cell-based, Staphylococcus aureus
Protocol: as §1, with “The MIC was defined as the lowest concentration of compound that prevented bacterial growth after incubating 16 to 18 hours at 37° C.” left out
as §2

[14] = test system: human red blood cells (hRBC); assay: Hemolysis of red blood cells; assay type: cell-based; conditions: for HC50: Table 1A; for RBC HC50: Table 4, concentration required to lyse 50% of red blood cells
Protocol: The washing was repeated three times with the buffer. In a 96-well plate, test compounds were added to the buffer from DMSO stocks. […] The plate was then incubated for 1 hour at 37° C. After incubation, the plate was centrifuged for 5 minutes at 3,500 rpm. Then 80 μL of the supernatant was transferred to another 96-well plate and the optical density (OD) was read at 405 nm. DMSO served as our negative control (0% hemolysis) while Triton X served as our positive control (100% hemolysis). […] All reported data correspond to three independent experiments. Ten-point dose-response curves were generated in 96-well plates to determine 50% hemolysis (HC50 values) of red blood cells.
The washing was repeated three times with the buffer. In 96-well plate, the test compounds were added to the buffer. Then 50 μL of 2% of hRBCs in the buffer were added to the test plate to make the final concentrations ranging from 0.2 to 200 μM of each test compound. The plate was then incubated for 1 hour at 37° C. After incubation, the plate was centrifuged for 5 minutes at 3500 rpm and then 80 μL of the supernatant was transferred to another 96-well plate and the Optical Density (OD) was read at 405 nm. DMSO served as our negative control (0% haemolysis) and Triton X served as our positive control (100% haemolysis). The HC50 (concentration of test compound required to lyse red blood cells by 50%) was calculated by plotting the dose-response curve (not shown) with Graphpad Prism 6.0. All data were obtained from three independent haemolysis experiments.

[15] = test system: MRSA-2 biofilms; assay: Calgary Biofilm Device assay (MBC/MBEC), MRSA-2; assay type: cell-based, Staphylococcus aureus; conditions: Table 2A; CBD assay
Protocol: (§3) The lid of the Calgary device was then removed, washed and transferred to another 96-well plate containing 2-fold serial dilutions of the test compounds (the “challenge plate”). The total volume of media with compound in each well in the challenge plate is 150 μL. […] The lid was then removed from the challenge plate and MBC/MBEC values were determined using different final assays. […] The MBC values were determined as the concentration giving a lack of visible bacterial growth (i.e., turbidity). […] In select experiments, pegs from the Calgary device were removed from lead biofilm eradicators after final incubation, sonicated for 30 minutes in PBS and plated out to determine biofilm cell killing of lead biofilm-eradicating agents (i.e., colony forming unit per milliliter, CFU/mL).
(§4) Using a Calgary Biofilm Device, bacterial biofilms are established on pegs suspended to the bottom of a 96-well plate lid. Following biofilm establishment on lid pegs, lids are then transferred to new 96-well plates containing serial dilutions of test compound and allowed to incubate. After compound treatment, 96-well plate lids with pegs are once again transferred to 96-well plates containing fresh media. During this final phase of the assay, viable biofilms will grow and disperse planktonic cells into the media where they will grow and give a turbid well result. Conversely, wells that have no growth are a result of pegs that had eradicated bacterial biofilms. The lowest concentration at which no turbidity is observed is the minimum biofilm eradication concentration (MBEC). Using the Calgary Biofilm Device, both minimum biofilm eradication concentrations and minimum bactericidal concentrations (MBC) for planktonic bacterial can be determined using one assay from a single bacterial culture (FIG. 3A).

[16] = test system: MRSA BAA-1707 biofilms; assay: Calgary Biofilm Device assay (MBC/MBEC), MRSA BAA-1707; assay type: cell-based, Staphylococcus aureus; conditions: Table 2A; CBD assay
Protocol: as §3, §4

[17] = test system: MRSE ATCC 35984 biofilms; assay: Calgary Biofilm Device assay (MBC/MBEC), MRSE 35984; assay type: cell-based, Staphylococcus epidermidis; conditions: Table 2A; CBD assay
Protocol: as §3, §4

[18] = test system: VRE ATCC 700221 biofilms; assay: Calgary Biofilm Device assay (MBC/MBEC), VRE 700221; assay type: cell-based, Enterococcus faecium; conditions: Table 2A; CBD assay
Protocol: as §3, §4

SMILES	MIC MRSA-2 ([1]; Table 1A)	MRSA-2 MIC [1]	MIC MRSA-2 ([1]; Table 4)	MIC S. epidermidis MRSE 35984 [3]	MIC [3]	MIC MRSE 35984 [3]	MIC E. faecium VRE 700221 [4]	VRE MIC [4]	MIC VRE 700221 [4]	MIC A. baumannii 1794 [5]	MIC A. bau. 1794 [5]	MIC PAO1 ([6]; Table 1A)	MIC PAO1 ([6]; Table 4)	HC50 [14]	RBC HC50 [14]	MRSA-2 MBC [15]	MRSA-2 MBEC [15]	further results
CCCCCCCCCCCCCCCCn1c(C)[n+](Cc2ccccc2)c2ccccc21.[Br-] [Compound 25]	3.13 µM	3.13 µM	3.13 µM	3.13 µM	3.13 µM	3.13 µM	1.56 µM	1.56 µM	1.56 µM	>100	>100 µM	> 100 µM	>100 µM	10.4 µM	10.4 µM	250 µM	188 µM	MIC ([1]; Table 1B): 12.5 µM; MIC ([1]; Table 3): 3.13 µM; MIC ([2]; Table 1B): 12.5 µM; MRSA BAA-1707 MIC ([2]; Table 2A): 9.38^a μM; MIC ([2]; Table 3): 12.5 µM; MIC MRSA 1707 ([2]; Table 4): 9.38a micromolar; MIC ([7]; Table 1B): 12.5 µM; MIC ([7]; Table 3): 12.5 µM; MIC ([8]; Table 1B): 12.5 µM; MIC ([8]; Table 3): 12.5 µM; MIC ([9]; Table 1B): 3.13 µM; MIC ([9]; Table 3): 3.13 µM; MIC ([10]; Table 1B): 6.25 µM; MIC ([10]; Table 3): 6.25 µM; MIC ([11]; Table 1B): 6.25 µM; MIC ([11]; Table 3): 6.25 µM; MIC ([12]; Table 1B): 12.5 µM; MIC ([12]; Table 3): 12.5 µM; MIC ([13]; Table 1B): 12.5 µM; MIC ([13]; Table 3): 12.5 µM
CCCCCCCCCCCCCCCCn1cc[n+](Cc2ccc(F)cc2C(F)(F)F)c1C.[Br-] [Compound 16]	3.13 µM	3.13 µM	3.13 µM	3.13 µM	3.13 µM	3.13 µM	1.56 µM	1.56 µM	1.56 µM	>100	>100 µM	> 100 µM	>100 µM	10.7 µM	10.7 µM	62.5/62.5 μM	62.5/62.5 μM	MRSA BAA-1707 MBC [16]: 62.5^b/ μM; MRSA BAA-1707 MBEC [16]: 93.8^a μM; MRSE 35984 MBC [17]: 23.5^a/ μM; MRSE 35984 MBEC [17]: 23.5^a μM; VRE MBC [18]: 2.0 µM⁻¹; VRE MBEC [18]: 3.0^a μM
